# Results published in patent publication US20250108036A1, “COMPOSITIONS FOR REMOVING SENESCENT CELLS AND USES THEREOF” (LIFECEUTIX CO., LTD., priority 2021, published 2025).
# Key:
# [1] = test system: HMGN1; assay: HMGN1 ELISA in culture medium of A549 cancer cells (Example 12, Table 66); assay type: cell-based, human; details: Homo sapiens, A549, doxorubicin-induced senescent A549 cells, test compound 30 μM, ELISA, DMSO = 100; read-out: HMGN1 (amount of HMGN1 secreted in the cell culture)
# [2] = test system: normally proliferating foreskin cells; assay: survival of normally proliferating foreskin cells treated with medium supernatant (secreted fluid) of compound-killed cells (Example 13, Table 68); assay type: cell-based, human; details: after 3 days
# Description: After treating cells with the test compound at a high concentration that induces the death of most cells in both non-senescence-induced and senescence-induced cells, the cells were washed three times with PBS to remove the test compound, and replaced with fresh medium and cultured for an additional 3 hours at the time when the compound has entered into the cell but has not yet induced cell death (approximately 1 to 3 hours after compound treatment). During this additional culture, by checking with an optical microscope, etc., the medium supernatants containing secreted fluid from normally proliferating and senescent cells in which cell death was induced were obtained. The obtained medium supernatant was replaced with the medium of normally proliferating and senescent cells, respectively, and cell survival rate was measured after 3 days.
# [3] = open field test in obese mice given senescent cells killed by test compounds (Example 16, Table 72); assay type: in vivo, C57BL6J mice; details: obese mice administered senescent cells whose death was induced by the test compound
# Outline: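 Doxorubicin-senesced (250 nM, 24 h, then 21 days) mouse preadipocytes killed by test compound were injected subcutaneously (5×10^5 cells) into 8-week-old female C57BL6J mice, followed by intraperitoneal senescent preadipocytes on days 7 and 10 and 8 weeks of high-fat diet. Open-field activity expressed as % of mice without killed-cell administration.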
# [4] = test system: SAOS-2; assay: senescent SAOS-2 tumor size in mice (Example 2-3); assay type: in vivo, BALB/c nude mice; details: doxorubicin 10 mg/kg i.p.; after 10 days LX-112 100 mg/kg oral daily 21 days or repeated doxorubicin
# Description: After 7-week-old male BALB/c nude mice (purchased from KRIBB Laboratory Animal Resource Center) were adapted to the experimental environment for one week, the mice were randomized into an experimental group and a control group. SAOS-2 (10^6 cells), a human osteosarcoma cancer cell line cultured in the same manner as Example 2-1, was mixed with PBS (purchased from Welgene) and then anesthetized using 2% isoflurane (purchased from Sigma). It was administered subcutaneously to mice. When the size of the tumor reached about […], doxorubicin was mixed at a concentration of 10 mg/kg in a 1:1 solution of distilled water and PBS (pH 7.2) and administered intraperitoneally to induce tumor aging. After 10 days, LX-112 mixed with 0.5% CMC-Na solution (purchased from Sigma) at a concentration of 100 mg/kg was orally administered daily for 21 days, and the size of the tumor was measured. The control group was repeatedly administered a solution mixed with doxorubicin, and then the size of the tumor was measured.
# [5] = test system: IL6; assay: serum IL6 ELISA in doxorubicin-aged mice (Example 8-5); assay type: in vivo, C57BL6J mice; details: doxorubicin-aged mice, LX-112 70 mg/kg oral daily 21 days
# Description: After adapting 8-week-old male C57BL6J mice (purchased from KRIBB Laboratory Animal Resource Center) to the experimental environment for 1 week, doxorubicin, an anticancer drug, was administered intraperitoneally at a concentration of 10 mg/kg, and mice that were induced to age for more than 10 days were assigned to an experimental group and a control group. LX-112 was mixed with 0.5% CMC-Na solution (purchased from Sigma) and administered orally at a concentration of 70 mg/kg daily for 21 days. The control group was administered only the solution in the same volume. After drug administration was completed, the method described in each Example below was performed.
# The amount of IL6, an aging-related inflammation secretory factor (SASP), was measured in serum collected from mice in the same manner as in Example 7-5 using an enzyme-linked immunosorbent assay (ELISA Kit, purchased from R&D Systems).
# [6] = test system: foreskin cells in which aging was induced by doxorubicin; assay: cell viability of senescent foreskin cells with caspase inhibitor QVD-Oph (Example 10, Table 61); assay type: cell-based, human; details: LX-112 10 μM; for Survial (%): doxorubicin-senescent foreskin cells, 3 days
SMILES,activity at 30 µM [1] [%],Survival (%) ([2]; supernatant from compound-treated medium without cells (No Cells)),Survival (%) ([2]; supernatant from death-induced proliferating foreskin cells (compound 30 μM)),Survival (%) ([2]; supernatant from death-induced senescent foreskin cells (compound 30 μM)),Open Field Test Time in Center (%) [3],Tumor Diameter (mm) [4],IL6 (%) [5],Survial (%) ([6]; QVD-Oph 20 μM applied 4 hours before),Survial (%) ([6]; without QVD-Oph),"inhibition of the death of senescent cells by the caspase inhibitor ([6]; QVD-Oph 20 μM, ABT-263 1 μM)"
COC(=O)c1ccc([C@H]2c3[nH]c4ccccc4c3C[C@H](C(=O)OC)N2C(=O)CCl)cc1 [LX-405],310,99.4 (±2.4) %,104 (±3) %,100.2 (±5.6) %,174.2 (±12.5) %,,,,,
"O=c1c2ccccc2[se]n1CCn1[se]c2ccccc2c1=O [LX-112, 1,2-[bis(1,2-benzisoselenazolone-3(2H)-ketone)]ethane]",,,,,,6.2 (±4.8) mm,69.8 (±12.2) %,53.9 (±2.2) %,39.5 (±3.7) %,did not effectively inhibit
